In PubChem BioAssay AID270 (DTP/NCI, 2004):
Where “and” joins values, the source holds several entries; their conditions need not be identical. Identical values can stand only once. Inconclusive results are not listed.

Tested on: BDF1 mice, s.c. Lewis lung carcinoma, T/C %
Assay: NCI In Vivo Anticancer Drug Screen. Data for tumor model Lewis Lung Carcinoma (subcutaneous) in B6D2F1 (BDF1) mice
Outline: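 Readout: survival or tumor size, expressed as treated (T) over vehicle control (C). Transplantable tumor implanted in mice; compound given to the treated group.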

CC1CCC(NC(=O)N(CCCl)N=O)CC1 (configuration not stated)
T/C (endpoint: mean survival time, dose: 8.0 mg/kg/injection, schedule: Q08DX002 (ip), vehicle: saline + alcohol, higher = longer survival): 97 % of control
T/C (endpoint: mean survival time, dose: 16.0 mg/kg/injection, schedule: Q08DX002 (ip), vehicle: saline + alcohol, higher = longer survival): 105 % of control
T/C (endpoint: mean survival time, dose: 24.0 mg/kg/injection, schedule: Q08DX002 (ip), vehicle: saline + alcohol, higher = longer survival): 123 % of control
T/C (endpoint: median survival time, dose: 0.5 mg/kg/injection, schedule: Q01DX001 (ip), vehicle: Klucel (hydroxypropylcellulose) (HPC), higher = longer survival): 107 % of control
T/C (endpoint: median survival time, dose: 1.0 mg/kg/injection, schedule: Q01DX001 (ip), vehicle: Klucel (hydroxypropylcellulose) (HPC), higher = longer survival): 86 % of control
T/C (endpoint: median survival time, dose: 1.0 mg/kg/injection, schedule: Q01DX005 (ip), vehicle: saline + alcohol, higher = longer survival): 90 % of control and 107 % of control
T/C (endpoint: median survival time, dose: 1.0 mg/kg/injection, schedule: Q02DX009 (ip), vehicle: saline + alcohol, higher = longer survival): 106 % of control and 124 % of control
T/C (endpoint: median survival time, dose: 2.0 mg/kg/injection, schedule: Q01DX005 (ip), vehicle: saline + alcohol, higher = longer survival): 113 % of control and 114 % of control
T/C (endpoint: median survival time, dose: 2.0 mg/kg/injection, schedule: Q01DX009 (ip), vehicle: Klucel (hydroxypropylcellulose) (HPC), higher = longer survival): 90 % of control and 105 % of control and 120 % of control
T/C (endpoint: median survival time, dose: 2.0 mg/kg/injection, schedule: Q01DX009 (ip), vehicle: saline with Tween-80, higher = longer survival): 91 % of control and 114 % of control
T/C (endpoint: median survival time, dose: 2.0 mg/kg/injection, schedule: Q02DX009 (ip), vehicle: saline + alcohol, higher = longer survival): 115 % of control
T/C (endpoint: median survival time, dose: 4.0 mg/kg/injection, schedule: Q01DX001 (ip), vehicle: Klucel (hydroxypropylcellulose) (HPC), higher = longer survival): 86 % of control
T/C (endpoint: median survival time, dose: 4.0 mg/kg/injection, schedule: Q01DX005 (ip), vehicle: saline + alcohol, higher = longer survival): 93 % of control and 105 % of control
T/C (endpoint: median survival time, dose: 4.0 mg/kg/injection, schedule: Q01DX009 (ip), vehicle: Klucel (hydroxypropylcellulose) (HPC), higher = longer survival): 92 % of control and 97 % of control
T/C (endpoint: median survival time, dose: 4.0 mg/kg/injection, schedule: Q01DX009 (ip), vehicle: saline with Tween-80, higher = longer survival): 98 % of control
T/C (endpoint: median survival time, dose: 4.0 mg/kg/injection, schedule: Q02DX009 (ip), vehicle: saline + alcohol, higher = longer survival): 90 % of control and 115 % of control
T/C (endpoint: median survival time, dose: 6.7 mg/kg/injection, schedule: Q01DX005 (ip), vehicle: saline with Tween-80, higher = longer survival): 105 % of control and 113 % of control
T/C (endpoint: median survival time, dose: 7.0 mg/kg/injection, schedule: Q01DX001 (ip), vehicle: saline with Tween-80, higher = longer survival): 104 % of control and 121 % of control
T/C (endpoint: median survival time, dose: 7.5 mg/kg/injection, schedule: Q01DX001 (ip), vehicle: Klucel (hydroxypropylcellulose) (HPC), higher = longer survival): 86 % of control
T/C (endpoint: median survival time, dose: 7.5 mg/kg/injection, schedule: Q01DX001 (ip), vehicle: saline with Tween-80, higher = longer survival): 112 % of control
T/C (endpoint: median survival time, dose: 8.0 mg/kg/injection, schedule: Q01DX001 (ip), vehicle: Klucel (hydroxypropylcellulose) (HPC), higher = longer survival): 96 % of control
T/C (endpoint: median survival time, dose: 8.0 mg/kg/injection, schedule: Q01DX001 (ip), vehicle: saline + alcohol, higher = longer survival): 100 % of control and 107 % of control
T/C (endpoint: median survival time, dose: 8.0 mg/kg/injection, schedule: Q01DX005 (ip), vehicle: saline + alcohol, higher = longer survival): 118 % of control and 120 % of control
T/C (endpoint: median survival time, dose: 8.0 mg/kg/injection, schedule: Q02DX009 (ip), vehicle: saline + alcohol, higher = longer survival): 118 % of control
T/C (endpoint: median survival time, dose: 8.0 mg/kg/injection, schedule: Q08DX002 (ip), vehicle: saline + alcohol, higher = longer survival): 95 % of control
T/C (endpoint: median survival time, dose: 9.0 mg/kg/injection, schedule: Q01DX001 (ip), vehicle: Klucel (hydroxypropylcellulose) (HPC), higher = longer survival): 94 % of control
T/C (endpoint: median survival time, dose: 10.0 mg/kg/injection, schedule: Q01DX001 (ip), vehicle: Klucel (hydroxypropylcellulose) (HPC), higher = longer survival): 85 % of control and 95 % of control
T/C (endpoint: median survival time, dose: 10.0 mg/kg/injection, schedule: Q01DX005 (ip), vehicle: saline with Tween-80, higher = longer survival): 157 % of control
T/C (endpoint: median survival time, dose: 10.7 mg/kg/injection, schedule: Q01DX001 (ip), vehicle: saline with Tween-80, higher = longer survival): 111 % of control
T/C (endpoint: median survival time, dose: 11.0 mg/kg/injection, schedule: Q01DX001 (ip), vehicle: saline with Tween-80, higher = longer survival): 94 % of control and 113 % of control
T/C (endpoint: median survival time, dose: 12.0 mg/kg/injection, schedule: Q01DX001 (ip), vehicle: gum acacia, higher = longer survival): 158 % of control
T/C (endpoint: median survival time, dose: 13.0 mg/kg/injection, schedule: Q04DX004 (ip), vehicle: saline with Tween-80, higher = longer survival): 115 % of control
T/C (endpoint: median survival time, dose: 15.0 mg/kg/injection, schedule: Q01DX001 (ip), vehicle: Klucel (hydroxypropylcellulose) (HPC), higher = longer survival): 112 % of control
T/C (endpoint: median survival time, dose: 16.0 mg/kg/injection, schedule: Q01DX001 (ip), vehicle: gum acacia, higher = longer survival): 112 % of control
T/C (endpoint: median survival time, dose: 16.0 mg/kg/injection, schedule: Q01DX001 (ip), vehicle: saline + alcohol, higher = longer survival): 109 % of control
T/C (endpoint: median survival time, dose: 16.0 mg/kg/injection, schedule: Q01DX001 (ip), vehicle: saline with Tween-80, higher = longer survival): 95 % of control and 118 % of control
T/C (endpoint: median survival time, dose: 16.0 mg/kg/injection, schedule: Q05DX002 (ip), vehicle: gum acacia, higher = longer survival): 156 % of control
T/C (endpoint: median survival time, dose: 16.0 mg/kg/injection, schedule: Q06DX002 (ip), vehicle: gum acacia, higher = longer survival): 121 % of control
T/C (endpoint: median survival time, dose: 16.0 mg/kg/injection, schedule: Q07DX002 (ip), vehicle: saline with Tween-80, higher = longer survival): 83 % of control
T/C (endpoint: median survival time, dose: 16.0 mg/kg/injection, schedule: Q08DX002 (ip), vehicle: saline + alcohol, higher = longer survival): 105 % of control
T/C (endpoint: median survival time, dose: 16.0 mg/kg/injection, schedule: Q11DX002 (ip), vehicle: saline with Tween-80, higher = longer survival): 63 % of control
T/C (endpoint: median survival time, dose: 16.0 mg/kg/injection, schedule: Q11DX002 (oral), vehicle: saline with Tween-80, higher = longer survival): 103 % of control
T/C (endpoint: median survival time, dose: 18.0 mg/kg/injection, schedule: Q01DX001 (ip), vehicle: other, higher = longer survival): 118 % of control
T/C (endpoint: median survival time, dose: 20.0 mg/kg/injection, schedule: Q01DX001 (ip), vehicle: Klucel (hydroxypropylcellulose) (HPC), higher = longer survival): 115 % of control
T/C (endpoint: median survival time, dose: 22.0 mg/kg/injection, schedule: Q01DX005 (ip), vehicle: saline with Tween-80, higher = longer survival): 113 % of control
T/C (endpoint: median survival time, dose: 24.0 mg/kg/injection, schedule: Q07DX002 (ip), vehicle: saline with Tween-80, higher = longer survival): 77 % of control
T/C (endpoint: median survival time, dose: 24.0 mg/kg/injection, schedule: Q08DX002 (ip), vehicle: gum acacia, higher = longer survival): 165 % of control
T/C (endpoint: median survival time, dose: 24.0 mg/kg/injection, schedule: Q11DX002 (ip), vehicle: saline with Tween-80, higher = longer survival): 110 % of control
T/C (endpoint: median survival time, dose: 24.0 mg/kg/injection, schedule: Q11DX002 (oral), vehicle: saline with Tween-80, higher = longer survival): 103 % of control
T/C (endpoint: median survival time, dose: 25.0 mg/kg/injection, schedule: Q04DX004 (ip), vehicle: saline with Tween-80, higher = longer survival): 111 % of control
T/C (endpoint: median survival time, dose: 30.0 mg/kg/injection, schedule: Q01DX001 (ip), vehicle: Klucel (hydroxypropylcellulose) (HPC), higher = longer survival): 150 % of control
T/C (endpoint: median survival time, dose: 30.0 mg/kg/injection, schedule: Q01DX001 (ip), vehicle: saline with Tween-80, higher = longer survival): 160 % of control
T/C (endpoint: median survival time, dose: 32.0 mg/kg/injection, schedule: Q01DX001 (ip), vehicle: saline + alcohol, higher = longer survival): 86 % of control and 88 % of control
T/C (endpoint: median survival time, dose: 36.0 mg/kg/injection, schedule: Q10DX002 (ip), vehicle: gum acacia, higher = longer survival): 108 % of control
T/C (endpoint: median survival time, dose: 36.0 mg/kg/injection, schedule: Q12DX002 (ip), vehicle: gum acacia, higher = longer survival): 93 % of control
T/C (endpoint: median survival time, dose: 60.0 mg/kg/injection, schedule: Q01DX001 (ip), vehicle: Klucel (hydroxypropylcellulose) (HPC), higher = longer survival): 90 % of control
T/C (endpoint: median survival time, dose: 60.0 mg/kg/injection, schedule: Q01DX001 (ip), vehicle: saline with Tween-80, higher = longer survival): 112 % of control
T/C (endpoint: median survival time, dose: 64.0 mg/kg/injection, schedule: Q01DX001 (ip), vehicle: saline + alcohol, higher = longer survival): 57 % of control
T/C (endpoint: median survival time, dose: 128.0 mg/kg/injection, schedule: Q01DX001 (ip), vehicle: saline + alcohol, higher = longer survival): 49 % of control
T/C (endpoint: median tumor weight (est.), dose: 2.0 mg/kg/injection, schedule: Q01DX009 (ip), vehicle: Klucel (hydroxypropylcellulose) (HPC), higher = larger tumour): 82 % of control
T/C (endpoint: median tumor weight (est.), dose: 4.0 mg/kg/injection, schedule: Q01DX009 (ip), vehicle: Klucel (hydroxypropylcellulose) (HPC), higher = larger tumour): 51 % of control
T/C (endpoint: median tumor weight (est.), dose: 7.0 mg/kg/injection, schedule: Q01DX001 (ip), vehicle: DMSO, higher = larger tumour): 59 % of control
T/C (endpoint: median tumor weight (est.), dose: 7.0 mg/kg/injection, schedule: Q01DX001 (ip), vehicle: saline with Tween-80, higher = larger tumour): 90 % of control
T/C (endpoint: median tumor weight (est.), dose: 7.0 mg/kg/injection, schedule: Q01DX001 (sc), vehicle: olive oil, sesame oil, peanut oil, higher = larger tumour): 83 % of control
T/C (endpoint: median tumor weight (est.), dose: 7.5 mg/kg/injection, schedule: Q01DX001 (ip), vehicle: Klucel (hydroxypropylcellulose) (HPC), higher = larger tumour): 92 % of control
T/C (endpoint: median tumor weight (est.), dose: 8.0 mg/kg/injection, schedule: Q01DX009 (ip), vehicle: Klucel (hydroxypropylcellulose) (HPC), higher = larger tumour): 3 % of control
T/C (endpoint: median tumor weight (est.), dose: 11.0 mg/kg/injection, schedule: Q01DX001 (ip), vehicle: DMSO, higher = larger tumour): 16 % of control
T/C (endpoint: median tumor weight (est.), dose: 11.0 mg/kg/injection, schedule: Q01DX001 (ip), vehicle: saline with Tween-80, higher = larger tumour): 56 % of control
T/C (endpoint: median tumor weight (est.), dose: 11.0 mg/kg/injection, schedule: Q01DX001 (sc), vehicle: olive oil, sesame oil, peanut oil, higher = larger tumour): 53 % of control
T/C (endpoint: median tumor weight (est.), dose: 12.0 mg/kg/injection, schedule: Q01DX001 (ip), vehicle: gum acacia, higher = larger tumour): 41 % of control and 50 % of control
T/C (endpoint: median tumor weight (est.), dose: 15.0 mg/kg/injection, schedule: Q01DX001 (ip), vehicle: Klucel (hydroxypropylcellulose) (HPC), higher = larger tumour): 42 % of control
T/C (endpoint: median tumor weight (est.), dose: 16.0 mg/kg/injection, schedule: Q01DX001 (ip), vehicle: gum acacia, higher = larger tumour): 46 % of control
T/C (endpoint: median tumor weight (est.), dose: 16.0 mg/kg/injection, schedule: Q01DX001 (ip), vehicle: saline with Tween-80, higher = larger tumour): 71 % of control
T/C (endpoint: median tumor weight (est.), dose: 16.0 mg/kg/injection, schedule: Q01DX001 (sc), vehicle: olive oil, sesame oil, peanut oil, higher = larger tumour): 74 % of control
T/C (endpoint: median tumor weight (est.), dose: 24.0 mg/kg/injection, schedule: Q01DX001 (ip), vehicle: saline with Tween-80, higher = larger tumour): 31 % of control
T/C (endpoint: median tumor weight (est.), dose: 24.0 mg/kg/injection, schedule: Q01DX001 (sc), vehicle: olive oil, sesame oil, peanut oil, higher = larger tumour): 18 % of control
T/C (endpoint: median tumor weight (est.), dose: 30.0 mg/kg/injection, schedule: Q01DX001 (ip), vehicle: Klucel (hydroxypropylcellulose) (HPC), higher = larger tumour): 3 % of control
